These are literature values, as cited in patent US20250289851A1, “CYCLIC PEPTIDES FOR DELIVERING THERAPEUTICS” (ENTRADA THERAPEUTICS, INC., priority 2022, published 2025).

For data set [1] the following is noted: hydrophobicity value, scale of Engleman et al.
The conditions of data set [2]: hydrophobicity value, scale of Janin.
The conditions of data set [3]: hydrophobicity value, scale of Eisenberg and Weiss.
For data set [4] the following is noted: hydrophobicity value, scale of Kyte and Doolittle.
For data set [5] the following is noted: hydrophobicity value, scale of Hoop and Woods.

On to `CC[C@H](C)[C@H](N)C(=O)O` [Ile, Isoleucine], for which the “Amino Acid Hydrophobicity, Engleman et al.” value in data set [1] is 3.1. Besides, the “Amino Acid Hydrophobicity, Janin” value in data set [2] is given as 0.7. The “Amino Acid Hydrophobicity, Eisenberg and Weiss” value in data set [3] is 0.73. The “Amino Acid Hydrophobicity, Kyte and Doolittle” value in data set [4] is given as 4.5. Moreover, the “Amino Acid Hydrophobicity, Hoop and Woods” value in data set [5] is on record as −1.8.
